Laboratory results from patent publication US7091185B2, “Periodic antimicrobial peptides” (Dow Global Technologies Inc., priority 2003, dated 2006).
Where two headings read alike, the source gives them in different places. Where no end group is shown, it is not given here.

Key:
E. coli ATCC 2592 = settings: ATCC 2592
Description: (§1) The bacteria tested were P. aeruginosa American Type Culture Collection Number (ATCC) 10145, E. coli ATCC 2592, and S. aureus (methicillin reseistant) ATTC 33591.
(§2) All experiments were compared to bacterial growth under optimal growth conditions (37° C., pH 7.0, absence of additional salt, growth media—referred to as standard growth conditions). In each plate, no growth control (media alone), positive growth control (bacteria with no test sample), positive antimicrobial controls (agents with known antimicrobial activity) and test compounds were tested.
(§3) The plates were incubated overnight, and the relative percent growth determined by optical density at 620 nm (OD620) using a […] […] PLUS™. […] All samples were tested in duplicate and each assay was repeated at least twice. […] IC50 and MIC are reported in μg/ml.

P. aeruginosa ATCC 10145 = settings: ATCC 10145
Description: as §1, §2, §3

[1] = system: S. aureus (methicillin resistant) ATCC 33591
Description: as §1, §2, §3

HeLa cell line = assay: HeLa MTS cellular reduction toxicity assay; assay type: cell-based; settings: for TX50: 24 h, MTS
Description: The RBC protocol was from Blondelle (2000) and is described generally as follows: The toxicity toward the HeLa cell line was determined using a MTS (3-(4-5-dimethylthiazol-2-yl)-5-(3carboxymethoxyphenyl)-2-(4-sulfophenyl)-2H-tetrazolium, sodium salt) cellular reduction assay. MTS (2 mg/mL) was prepared in Dulbecco PBS (pH 7.35), filtered, aliquoted and stored at minus 20° C. In 96 well flat bottomed plates, cell suspensions (250 μL of 6×10^4 cell/mL in each well) were incubated for 48 h at 37° C. (5% CO2 incubator). The peptides (50 μL) were then added to the cell monolayer (following aspiration of the media from each well and addition of 50 μL of Dulbecco's Modified Eagles Medium) at varying concentrations derived from serial 2-fold dilutions, and the plates incubated for 24 h at 37° C. (5% CO2 incubator). Proliferation was then determined by adding a solution of phenazine methosulfate (PMS: 0.92 mg/mL in DPBS) to MTS at a 1:20 ration just prior to the assay. Twenty microliters MTS-PMS solution were added to each well and the plates incubated for 1 h at 37° C. (5% CO2 incubator). The relative percent toxicity was determined by comparing the absorbance at 490 nm of each peptide to the absorbance of cells without peptide. The TX50 (concentration required for 50% toxicity) was calculated using a sigmoidal curve fitting software (Graphpad Prism).

Staph. aureus ATCC 6538 = assay: HMARQ biocidal kill activity; assay type: cell-based; settings: Staph. aureus ATCC 6538 (gram+)
Description: (§4) Biocide efficacy protocols were improved by reducing sample size, organizing the test material into an array format, implementing most probable number (MPN) quantitation and using multi-channel liquid handling equipment. We call the new method “high-throughput microanalysis and rapid quantitation” or “HMARQ.” HMARQ is directly applicable to current industrial efficacy tests such as multi-cycle preservation challenge or time course disinfection tests.
(§5) HMARQ is performed in a high throughput plate, such as 96-well microtiter plates. Typical sample volumes have been reduced down to 200 to 300 μL, but can be reduced further if desired. In these samples, no more than 10% of the total volume will be composed of the biocide and organism solution, and all non-matrix additions are normalized for all samples.
(§6) The sample matrix is first inoculated with the desired concentration of microorganisms. Inoculated sample matrix is then added to the 96-well assay block containing the biocide(s) under study. Each sample block contains biocide treated samples and untreated control samples (lacking biocide). Once the samples are prepared, the entire block of samples is mixed by vortexing until each sample is homogenous. In general, the study starts once mixing is complete, and samples are removed as required for the analysis. When Kill Time testing (rate of biocide activity) is performed, the microorganisms are added after biocide addition to the samples, allowing for rapid mixing and analysis.
(§7) Bacterial concentration (CFU/mL) is determined using the most probable number method (MPN). The contaminated solution is serially diluted until the “no growth” endpoint is reached. The endpoint represents the MPN and is expressed in units of the bacterial concentration. A serial 1:10 dilution will yield a bacterial concentration resolution of 1 log and the log reduction is determined by comparing the concentration of organisms in a treated sample to the concentration of organisms in untreated samples. For example, if a sample requires four 1:10 dilutions before bacterial growth is lost then the MPN for bacterial concentration in the sample is less than or equal to 1×10^4 CFU/mL (1E4). […] This method of enumeration is generally applicable to all non-filamentous microorganisms.
(§8) Media included Tryptic Soy Broth (TSB) for bacteria and Sabouraud Dextrose Broth (SDB) for fungi. These are available commercially and prepared according to the manufacturers instructions. Indicator medium was TSB/R for bacteria and SDB/R for fungi. These were made by addition of 50 μM filter sterilized Resazurin to the sterilized and cooled medium. Tryptic Soy agar plates (TSA) and SDA slants were used to provide inoculant for bacterial and fungal cultures. The indicator dye appeared pink or white when bacterial growth was present.
(§9) Using the HMARQ test described above, periodic peptides were generated and tested for Kill Activity. In this experiment, a broader range of peptidezs were tested for activity. Units are expressed as ppm (μg/mL) needed for 3.5 log kill at 15 min or 24 hour and the results are shown below.

P. aeruginosa ATCC 15442 = assay: HMARQ biocidal kill activity; assay type: cell-based; settings: P. aeruginosa ATCC 15442 (gram−)
Description: as §4, §5, §6, §7, §8, §9

Red blood cells (RBC) = assay: Red blood cell toxicity; assay type: cell-based
Red blood cell toxicity = assay type: cell-based; settings: red blood cells (RBC)
Cr. Neoformans 32045 = assay type: cell-based
Description: (§10) The MIC and IC50 values were determined by a broth microdilution method according to guidelines of the National Committee for Clinical Laboratory Standard as follows: In 96-well tissue culture plates, a fixed volume of bacterial suspension in 2× broth (as defined below) was added to the mixtures or individual compounds dispensed at concentrations varying from 1,000 to 1 μg/ml derived from serial two-fold dilutions in sterile water. The bacteria tested were P. aeruginosa American Type Culture Collection Number (ATCC) 10145, E. coli ATCC 2592, and S. aureus (methicillin reseistant) ATTC 33591.
(§11) The plates were incubated overnight, and the relative percent growth determined by optical density at 620 nm (OD620) using a TITERTEK MULTISKAN PLUS™. […] IC50 values were calculated using a sigmoidal curve fitting software program (GRAPHPAD,™ ISI Software,™ San Diego, Calif.). All samples were tested in duplicate and each assay was repeated at least twice. In the following table, KFAK is the repeat unit and multimers of KFAK were tested. IC50 and MIC are reported in μg/ml.
(§12) Because the antibacterial activity of the periodic peptides was so promising, further experiments were performed to determine if the periodic peptides also had antifungal activity. The experimental design was similar to that above, with accommodation made for fungal growth requirements, including the use of Sabouraud Dextrose Broth (SDB) and Sabouraud Dextrose Agar (SDA) slants.

C. albicans 10231 = assay type: cell-based; settings: 10231
Description: as §10, §11, §12

[2] = RBCs, concentration required for 50% toxicity, read-out: TX50
[3] = S. aureus (methicillin resistant) 33591, gram+

| Substance | IC50 (E. coli ATCC 2592) [µg/mL] | MIC (E. coli ATCC 2592) [µg/mL] | IC50 (P. aeruginosa ATCC 10145) [µg/mL] | MIC (P. aeruginosa ATCC 10145) [µg/mL] | IC50 ([1]; ATCC 33591) [µg/mL] | MIC ([1]; ATCC 33591) [µg/mL] | % kill at 500 μg/ml (HeLa cell line) [%] | TX50 (HeLa cell line) [µg/mL] | % kill at 250 μg/ml (Red blood cells (RBC)) [%] | HC50 at 24 h (Red blood cell toxicity) [µg/mL] | IC50 (Cr. Neoformans 32045) [µg/mL] | MIC (Cr. Neoformans 32045) [µg/mL] | IC50 (C. albicans 10231) [µg/mL] | MIC (C. albicans 10231) [µg/mL] | HC50 at 24 h (Red blood cell toxicity; [2]) [µg/mL] | further results |
| --- | --- | --- | --- | --- | --- | --- | --- | --- | --- | --- | --- | --- | --- | --- | --- | --- |
| AKKFAKKFAKKFAKKFAKKFAKKF [AKKF (6), AKKF AKKF AKKF AKKF AKKF AKKF] | 8 | 16 to 32 | 21 | 25 | 41 | 125 to 250 | 7.3 | 33 | 100 | 39 | 11 | 16 to 32 | 225 | 250 to 500 |  | ppm needed for 3.5 log kill at 15 min (Staph. aureus ATCC 6538): >500 ppm; ppm needed for 3.5 log kill at 24 hr (Staph. aureus ATCC 6538): 125 ppm; ppm needed for 3.5 log kill at 15 min (P. aeruginosa ATCC 15442): >500 ppm; ppm needed for 3.5 log kill at 24 hr (P. aeruginosa ATCC 15442): 16 ppm |
| FKAFKAFKAFKAFKAFKA [FKA (6), FKA FKA FKA FKA FKA FKA] | 29 | 32 to 62 | 79 | 100 | >500 | >500 | 110.8 | >500 | 28 |  | 2.8 | 4 to 8 | 208 | 250 to 500 | 496 | ppm needed for 3.5 log kill at 15 min (Staph. aureus ATCC 6538): 4 ppm; ppm needed for 3.5 log kill at 24 hr (Staph. aureus ATCC 6538): 500 ppm; ppm needed for 3.5 log kill at 15 min (P. aeruginosa ATCC 15442): 8 ppm; ppm needed for 3.5 log kill at 24 hr (P. aeruginosa ATCC 15442): 8 ppm |
| FKLRAKIKVRLRAKIKL [D4E1, FKLRAKIKVRLRAKIKL, reference compound] | 3.3 | 8 to 16 | 6.2 | 8 to 16 | 6.3 | 32 to 62 |  |  | 77.2 |  | 1.8 | 8 to 16 | 70.6 | 80 to 125 | 134 |  |
| H-KFAKKFAKKFAKKFAKKFAKKFAK-OH [KFAK (6), KFAK KFAK KFAK KFAK KFAK KFAK] | 4 | 8 to 16 | 5.6 |  | 38.7 | 125 to 250 | 30.5 | 457.3 | 7.3 | > 250 | 5.8 | 16 to 32 | 72 | 80 to 125 |  |  |
| KFAKKFAKKFAKKFAK [KFAK (4), KFAK KFAK KFAK KFAK] | 46 | 62 to 125 |  |  |  |  | 76 | >500 |  |  | 5.3 | 6.0 to 8.0 | 70 | 90 to 125 | > 250 | IC50 [1, 3]: >250 µg/mL; MIC [1, 3]: >250 µg/mL; % kill at 250 μg/ml (Red blood cells (RBC); RBCs, 250 μg/ml): 0.1% |
| KFAKKFAKKFAKKFAKKFAK [KFAK (5), KFAK KFAK KFAK KFAK KFAK] | 6 | 16 to 32 |  |  |  |  | 89 | >500 |  |  | 5 | 8 to 16 | 66 | 90 to 125 | > 250 | IC50 [1, 3]: >250 µg/mL; MIC [1, 3]: >250 µg/mL; % kill at 250 μg/ml (Red blood cells (RBC); RBCs, 250 μg/ml): 4.1% |
| KFAKKFAKKFAKKFAKKFAKKFAKKFAK [KFAK (7), KFAK KFAK KFAK KFAK KFAK KFAK KFAK] | 8 | 32 to 62 |  |  | 108.8 | >250 | 13.0 | 204.1 | 13.7 | > 250 |  | 32 to 62 | 82 | 100 to 125 |  | TX50 (Red blood cells (RBC)): >250 µg/mL |
